# Assay results published in the supplement of paper PMC10307832.
# Tests used:
# Experiment in all cases: relative viability (nuclei count vs DMSO), 5 days (fraction); higher = more cells survive
# [1] = compound: C1CNCCC1C2=CC(=NN2)C3=CC=NC=C3 + CC(=O)Nc1cccc(-n2c(=O)n(C3CC3)c(=O)c3c(Nc4ccc(I)cc4F)n(C)c(=O)c(C)c32)c1 [Trametinib] (partner 0.02 µM)
# In short: (§1)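 Relative viability was taken as the ratio of nuclei in treated wells to nuclei in vehicle wells. Lung cancer cell lines in 1536-well plates received compounds by pin tool one day after seeding, either one drug alone or a fixed anchor-drug dose plus five library-drug doses (not always all listed) in √10 steps. Nuclei were counted on 4× images after 5 days of treatment, and values are medians of duplicate plates.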
# [2] = compound: C1CNCCC1C2=CC(=NN2)C3=CC=NC=C3 + COc1cccc2cc(-c3nc([C@H]4CC[C@H](C(=O)O)CC4)n4ncnc(N)c34)[nH]c12 [OSI-027] (partner 0.5 µM)
# In short: as §1
# Tanzisertib + Linsitinib = compound: O[C@H]1CC[C@H](Nc2ncc3nc(Nc4c(F)cc(F)cc4F)n([C@H]4CCOC4)c3n2)CC1 [Tanzisertib] + C[C@]1(O)C[C@@H](c2nc(-c3ccc4ccc(-c5ccccc5)nc4c3)c3c(N)nccn32)C1 [Linsitinib] (partner 1 µM)
# In short: as §1
# Tanzisertib + Tozasertib = compound: O[C@H]1CC[C@H](Nc2ncc3nc(Nc4c(F)cc(F)cc4F)n([C@H]4CCOC4)c3n2)CC1 [Tanzisertib] + Cc1cc(Nc2cc(N3CCN(C)CC3)nc(Sc3ccc(NC(=O)C4CC4)cc3)n2)n[nH]1 [Tozasertib] (partner 0.1 µM)
# In short: as §1
Cell Line,relative viability ([1]; first compound 0.08 µM),relative viability ([1]; first compound 0.8 µM),relative viability ([1]; first compound 2.53 µM),relative viability ([1]; first compound 8 µM),relative viability ([2]; first compound 0.08 µM),relative viability ([2]; first compound 0.8 µM),relative viability ([2]; first compound 2.53 µM),relative viability ([2]; first compound 8 µM),relative viability (Tanzisertib + Linsitinib; first compound 0.08 µM),relative viability (Tanzisertib + Linsitinib; first compound 0.253 µM),relative viability (Tanzisertib + Linsitinib; first compound 0.8 µM),relative viability (Tanzisertib + Linsitinib; first compound 2.53 µM),relative viability (Tanzisertib + Linsitinib; first compound 8 µM),relative viability (Tanzisertib + Tozasertib; first compound 0.08 µM),relative viability (Tanzisertib + Tozasertib; first compound 0.253 µM),relative viability (Tanzisertib + Tozasertib; first compound 0.8 µM),relative viability (Tanzisertib + Tozasertib; first compound 2.53 µM),relative viability (Tanzisertib + Tozasertib; first compound 8 µM)
NCI-H441,0.425,0.469,0.555,0.461,0.536,0.769,0.736,0.867,0.626,0.607,0.634,0.553,0.454,0.568,0.71,0.512,0.422,0.698
NCI-H460,0.0741,0.122,0.158,0.188,0.496,0.833,0.775,0.676,0.982,0.706,0.738,0.783,0.525,0.548,0.376,0.457,0.382,0.099
NCI-H520,0.609,0.776,0.666,0.725,0.247,0.2,0.236,0.311,1.19,1.11,0.941,0.832,0.927,0.411,0.464,0.403,0.428,0.414
NCI-H596,0.777,0.808,0.819,0.834,0.838,0.763,0.784,0.736,1.19,0.956,1.11,1.12,1.02,1.02,0.809,0.971,1.06,0.715
NCI-H647,0.491,0.379,0.535,0.525,0.631,0.68,0.66,0.589,1.17,1.29,1.12,1.24,1.3,0.283,0.269,0.281,0.388,0.226
NCI-H650,0.825,1.14,1.1,1.02,0.513,0.58,0.505,0.543,0.949,0.918,0.92,1.2,0.366,0.761,0.796,0.776,0.768,0.65
NCI-H661,0.568,0.561,0.586,0.596,0.707,0.835,0.739,0.634,0.657,0.495,0.619,0.477,0.599,0.361,0.345,0.331,0.35,0.359
NCI-H727,0.386,0.366,0.421,0.364,0.613,0.579,0.816,0.815,0.358,0.32,0.322,0.38,0.249,0.702,0.714,0.699,0.663,0.66
NCI-H838,0.518,0.494,0.589,0.512,0.385,0.423,0.394,0.491,1.02,0.997,1,1.01,0.919,0.317,0.283,0.301,0.249,0.237
